Source: US10294202B2, “Pyrrolidinones as herbicides” (FMC Corporation, priority 2013, dated 2019)

Tests used:
soybean = assay: Test E preemergence herbicide test; type: in vivo, Glycine max; design: key: 0 = no effect, 100 = complete control
From the text: (§1) Seeds of plant species selected from corn (Zea mays), soybean (Glycine max), velvetleaf (Abutilon theophrasti), lambsquarters (Chenopodium album), wild poinsettia (Euphorbia heterophylla), pigweed, palmer (palmer pigweed, Amaranthus palmeri), waterhemp (common waterhemp, Amaranthus rudis), surinam grass (Brachiaria decumbens), crabgrass, large (large crabgrass, Digitaria sanguinalis), crabgrass, Brazil (Brazilian crabgrass, Digitaria horizontalis), panicum, fall (fall panicum, Panicum dichotomiflorum), foxtail, giant (giant foxtail, Setaria faberii), foxtail, green (green foxtail, Setaria viridis), goosegrass (Eleusine indica), johnsongrass (Sorghum halepense), ragweed (common ragweed, Ambrosia elatior), barnyardgrass (Echinochloa crus-galli), sandbur (southern sandbur, Cenchrus echinatus), arrowleaf […] rhombifolia), ryegrass, Italian (Italian ryegrass, Lolium multiflorum), dayflower, VA (Virginia dayflower, Commelina virginica), field bindweed (Convolvulus arvensis), morningglory (Ipomoea coccinea), nightshade (eastern black nightshade, Solanum ptycanthum), kochia (Kochia scoparia), nutsedge, yellow (yellow nutsedge, Cyperus esculentus), cocklebur (common cocklebur, Xanthium strumarium), smartweed (ladysthumb smartweed, Polygonum Persicaria) and beggarticks (hairy beggarticks, Bidens pilosa), were planted into a silt loam soil and treated preemergence with test chemicals formulated in a non-phytotoxic solvent mixture which included a surfactant. Treated plants and controls were maintained in a greenhouse for 21 days, after which time all species were compared to controls and visually evaluated. Plant response ratings, summarized in Table E, are based on a scale of 0 to 100 where 0 is no effect and 100 is complete control. A dash (-) response means no test result.

foxtail, green [1] = assay: Test E preemergence herbicide test; type: in vivo, Setaria viridis; design: key: 0 = no effect, 100 = complete control
From the text: as §1

goosegrass = assay: Test E preemergence herbicide test; type: in vivo, Eleusine indica; design: key: 0 = no effect, 100 = complete control
From the text: as §1

dayflower, VA = assay: Test E preemergence herbicide test; type: in vivo, Commelina virginica; design: key: 0 = no effect, 100 = complete control
From the text: as §1

nightshade = assay: Test E preemergence herbicide test; type: in vivo, Solanum ptycanthum; design: key: 0 = no effect, 100 = complete control
From the text: as §1

blackgrass = assay: Test D pre-/postemergence herbicide test; type: in vivo, Alopecurus myosuroides; conditions: for Plant response rating: Blackgrass, scale 0 to 100; for Plant response rating, Blackgrass: scale 0 to 100 (0 no effect, 100 complete control)
From the text: (§2) Seeds of plant species selected from bluegrass (annual bluegrass, Poa annua), blackgrass (Alopecurus myosuroides), canarygrass (littleseed canarygrass, Phalaris minor), chickweed (common chickweed, Stellaria media), galium (catchweed bedstraw, Galium aparine), bromegrass, downy (downy bromegrass, Bromus tectorum), field poppy (Papaver rhoeas), field violet (Viola arvensis), foxtail, green (green foxtail, Setaria viridis), deadnettle (henbit deadnettle, Lamium amplexicaule), ryegrass, Italian (Italian ryegrass, Lolium multiflorum), kochia (Kochia scoparia), lambsquarters (Chenopodium album), oilseed rape (Brassica napus), pigweed (Amaranthus retroflexus), chamomile (scentless chamomile, Matricaria inodora), Russian thistle (Salsola kali), speedwell (bird's-eye speedwell, Veronica persica), barley, spring (spring barley, Hordeum vulgare), wheat, spring (spring wheat, Triticum aestivum), buckwheat, wild (wild buckwheat, Polygonum convolvulus), mustard, wild (wild mustard, Sinapis arvensis), oat, wild (wild oat, Avena fatua), radish, wild (wild radish, Raphanus raphanistrum), […]), barley, winter (winter barley, Hordeum vulgare), and wheat, winter (winter wheat, Triticum aestivum) were planted into a silt loam soil and treated preemergence with test chemicals formulated in a non-phytotoxic solvent mixture which included a surfactant. At the same time, these species were planted in pots containing Redi-Earth® planting medium (Scotts Company, 14111 Scottslawn Road, Marysville, Ohio 43041) comprising spaghnum peat moss, vermiculite, wetting agent and starter nutrients and treated with postemergence applications of the test chemicals formulated in the same manner. Plants ranged in height from 2 to 18 cm (1- to 4-leaf stage). Treated plants and controls were maintained in a controlled growth environment for 7 to 21 days after which time all species were compared to controls and visually evaluated. Plant response ratings, summarized in Table D, are based on a scale of 0 to 100 where 0 is no effect and 100 is complete control. A dash (-) response means no test result.

galium = assay: Test D pre-/postemergence herbicide test; type: in vivo, Galium aparine; conditions: for Plant response rating: Galium, scale 0 to 100; for Plant response rating, Galium: scale 0 to 100 (0 no effect, 100 complete control)
Procedure, shortened: (§3)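 Visual ratings from 0 (no effect) to 100 (complete control) were made against untreated controls 7 to 21 days after treatment. Application was both preemergence, on silt loam soil, and postemergence, to 1- to 4-leaf plants 2-18 cm tall; compounds were formulated in a non-phytotoxic surfactant-containing solvent.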

bromegrass, downy = assay: Test D pre-/postemergence herbicide test; type: in vivo, Bromus tectorum; conditions: for Plant response rating: Bromegrass, Downy, scale 0 to 100; for Plant response rating, Bromegrass, Downy: scale 0 to 100 (0 no effect, 100 complete control)
From the text: as §2

field violet = assay: Test D pre-/postemergence herbicide test; type: in vivo, Viola arvensis; conditions: for Plant response rating: Field Violet, scale 0 to 100; for Plant response rating, Field Violet: scale 0 to 100 (0 no effect, 100 complete control)
Procedure, shortened: as §3

foxtail, green [2] = assay: Test D pre-/postemergence herbicide test; type: in vivo, Setaria viridis; conditions: for Plant response rating: Foxtail, Green, scale 0 to 100; for Plant response rating, Foxtail, Green: scale 0 to 100 (0 no effect, 100 complete control)
Procedure, shortened: as §3

lambsquarters = assay: Test D pre-/postemergence herbicide test; type: in vivo, Chenopodium album; conditions: for Plant response rating: Lambsquarters, scale 0 to 100; for Plant response rating, Lambsquarters: scale 0 to 100 (0 no effect, 100 complete control)
Procedure, shortened: as §3

chamomile = assay: Test D pre-/postemergence herbicide test; type: in vivo, Matricaria inodora; conditions: for Plant response rating: Chamomile, scale 0 to 100; for Plant response rating, Chamomile: scale 0 to 100 (0 no effect, 100 complete control)
Procedure, shortened: as §3

O=C1NCC(c2ccc(F)cc2)C1C(=O)Nc1ccccc1F (racemic) [Compound 16]
Plant response rating, Soybean (soybean; 16 g ai/ha): 0
Plant response rating, Soybean (soybean; 31 g ai/ha): 0
Plant response rating, Soybean (soybean; 62 g ai/ha): 0
Plant response rating, Soybean (soybean; 125 g ai/ha): 0
Plant response rating, Soybean (soybean; 250 g ai/ha): 0
Plant response rating, Foxtail, Green (foxtail, green [1]; 16 g ai/ha): 0
Plant response rating, Foxtail, Green (foxtail, green [1]; 31 g ai/ha): 0
Plant response rating, Foxtail, Green (foxtail, green [1]; 62 g ai/ha): 10
Plant response rating, Foxtail, Green (foxtail, green [1]; 125 g ai/ha): 25
Plant response rating, Foxtail, Green (foxtail, green [1]; 250 g ai/ha): 95
Plant response rating, Goosegrass (goosegrass; 16 g ai/ha): 0
Plant response rating, Goosegrass (goosegrass; 31 g ai/ha): 0
Plant response rating, Goosegrass (goosegrass; 62 g ai/ha): 0
Plant response rating, Goosegrass (goosegrass; 125 g ai/ha): 0
Plant response rating, Goosegrass (goosegrass; 250 g ai/ha): 0
Plant response rating, Dayflower, VA (dayflower, VA; 16 g ai/ha): 0
Plant response rating, Dayflower, VA (dayflower, VA; 62 g ai/ha): 0
Plant response rating, Dayflower, VA (dayflower, VA; 125 g ai/ha): 0
Plant response rating, Nightshade (nightshade; 16 g ai/ha): 0
Plant response rating, Nightshade (nightshade; 31 g ai/ha): 0
Plant response rating, Nightshade (nightshade; 62 g ai/ha): 0
Plant response rating, Nightshade (nightshade; 125 g ai/ha): 0
Plant response rating, Nightshade (nightshade; 250 g ai/ha): 0

O=C1NCC(c2cc(F)c(F)c(F)c2)C1C(=O)Nc1ccccc1F (racemic) [Compound 34]
Plant response rating (blackgrass; Postemergence, 16 g ai/ha): 0
Plant response rating (blackgrass; Postemergence, 31 g ai/ha): 0
Plant response rating (blackgrass; Postemergence, 62 g ai/ha): 0
Plant response rating (blackgrass; Postemergence, 125 g ai/ha): 0
Plant response rating (blackgrass; Postemergence, 250 g ai/ha): 0
Plant response rating (galium; Postemergence, 16 g ai/ha): 0
Plant response rating (galium; Postemergence, 31 g ai/ha): 0
Plant response rating (galium; Postemergence, 62 g ai/ha): 0
Plant response rating (galium; Postemergence, 125 g ai/ha): 0
Plant response rating (galium; Postemergence, 250 g ai/ha): 0
Plant response rating (bromegrass, downy; Postemergence, 16 g ai/ha): 0
Plant response rating (bromegrass, downy; Postemergence, 31 g ai/ha): 0
Plant response rating (bromegrass, downy; Postemergence, 62 g ai/ha): 0
Plant response rating (bromegrass, downy; Postemergence, 125 g ai/ha): 0
Plant response rating (bromegrass, downy; Postemergence, 250 g ai/ha): 0
Plant response rating (field violet; Postemergence, 16 g ai/ha): 0
Plant response rating (field violet; Postemergence, 31 g ai/ha): 0
Plant response rating (field violet; Postemergence, 62 g ai/ha): 0
Plant response rating (field violet; Postemergence, 125 g ai/ha): 0
Plant response rating (field violet; Postemergence, 250 g ai/ha): 20
Plant response rating (foxtail, green [2]; Postemergence, 16 g ai/ha): 0
Plant response rating (foxtail, green [2]; Postemergence, 31 g ai/ha): 0
Plant response rating (foxtail, green [2]; Postemergence, 62 g ai/ha): 0
Plant response rating (foxtail, green [2]; Postemergence, 125 g ai/ha): 0
Plant response rating (foxtail, green [2]; Postemergence, 250 g ai/ha): 0
Plant response rating (lambsquarters; Postemergence, 16 g ai/ha): 0
Plant response rating (lambsquarters; Postemergence, 31 g ai/ha): 0
Plant response rating (lambsquarters; Postemergence, 62 g ai/ha): 0
Plant response rating (lambsquarters; Postemergence, 125 g ai/ha): 0
Plant response rating (lambsquarters; Postemergence, 250 g ai/ha): 20
Plant response rating (chamomile; Postemergence, 16 g ai/ha): 0
Plant response rating (chamomile; Postemergence, 31 g ai/ha): 0
Plant response rating (chamomile; Postemergence, 62 g ai/ha): 0
Plant response rating (chamomile; Postemergence, 125 g ai/ha): 0
Plant response rating (chamomile; Postemergence, 250 g ai/ha): 0

O=C1NCC(c2cccc(C(F)(F)F)c2)C1C(=O)Nc1ccc(F)cc1F (racemic) [Compound 207]
Plant response rating, Blackgrass (blackgrass; Preemergence, 31 g ai/ha): 0
Plant response rating, Blackgrass (blackgrass; Preemergence, 62 g ai/ha): 5
Plant response rating, Blackgrass (blackgrass; Preemergence, 125 g ai/ha): 20
Plant response rating (blackgrass; Preemergence, 250 g ai/ha): 75
Plant response rating, Galium (galium; Preemergence, 31 g ai/ha): 55
Plant response rating, Galium (galium; Preemergence, 62 g ai/ha): 60
Plant response rating, Galium (galium; Preemergence, 125 g ai/ha): 45
Plant response rating (galium; Preemergence, 250 g ai/ha): 20
Plant response rating, Bromegrass, Downy (bromegrass, downy; Preemergence, 31 g ai/ha): 0
Plant response rating, Bromegrass, Downy (bromegrass, downy; Preemergence, 62 g ai/ha): 15
Plant response rating, Bromegrass, Downy (bromegrass, downy; Preemergence, 125 g ai/ha): 15
Plant response rating (bromegrass, downy; Preemergence, 250 g ai/ha): 15
Plant response rating, Field Violet (field violet; Preemergence, 31 g ai/ha): 10
Plant response rating, Field Violet (field violet; Preemergence, 62 g ai/ha): 15
Plant response rating, Field Violet (field violet; Preemergence, 125 g ai/ha): 35
Plant response rating (field violet; Preemergence, 250 g ai/ha): 35
Plant response rating, Foxtail, Green (foxtail, green [2]; Preemergence, 31 g ai/ha): 15
Plant response rating, Foxtail, Green (foxtail, green [2]; Preemergence, 62 g ai/ha): 60
Plant response rating, Foxtail, Green (foxtail, green [2]; Preemergence, 125 g ai/ha): 75
Plant response rating (foxtail, green [2]; Preemergence, 250 g ai/ha): 90
Plant response rating, Lambsquarters (lambsquarters; Preemergence, 31 g ai/ha): 0
Plant response rating, Lambsquarters (lambsquarters; Preemergence, 62 g ai/ha): 30
Plant response rating, Lambsquarters (lambsquarters; Preemergence, 125 g ai/ha): 65
Plant response rating (lambsquarters; Preemergence, 250 g ai/ha): 90
Plant response rating, Chamomile (chamomile; Preemergence, 31 g ai/ha): 75
Plant response rating, Chamomile (chamomile; Preemergence, 62 g ai/ha): 80
Plant response rating, Chamomile (chamomile; Preemergence, 125 g ai/ha): 85
Plant response rating (chamomile; Preemergence, 250 g ai/ha): 85

O=C1NCC(c2cccc(Br)c2)C1C(=O)Nc1ccccc1F (centres unmarked) [Compound 66]
Plant response rating, Soybean (soybean; 16 g ai/ha): 0
Plant response rating, Soybean (soybean; 31 g ai/ha): 0
Plant response rating, Soybean (soybean; 62 g ai/ha): 0
Plant response rating, Soybean (soybean; 125 g ai/ha): 0
Plant response rating, Soybean (soybean; 250 g ai/ha): 0
Plant response rating, Foxtail, Green (foxtail, green [1]; 16 g ai/ha): 0
Plant response rating, Foxtail, Green (foxtail, green [1]; 31 g ai/ha): 0
Plant response rating, Foxtail, Green (foxtail, green [1]; 62 g ai/ha): 0
Plant response rating, Foxtail, Green (foxtail, green [1]; 125 g ai/ha): 35
Plant response rating, Foxtail, Green (foxtail, green [1]; 250 g ai/ha): 60
Plant response rating, Goosegrass (goosegrass; 16 g ai/ha): 0
Plant response rating, Goosegrass (goosegrass; 31 g ai/ha): 0
Plant response rating, Goosegrass (goosegrass; 62 g ai/ha): 0
Plant response rating, Goosegrass (goosegrass; 125 g ai/ha): 0
Plant response rating, Goosegrass (goosegrass; 250 g ai/ha): 0
Plant response rating, Dayflower, VA (dayflower, VA; 16 g ai/ha): 0
Plant response rating, Dayflower, VA (dayflower, VA; 31 g ai/ha): 0
Plant response rating, Dayflower, VA (dayflower, VA; 62 g ai/ha): 0
Plant response rating, Dayflower, VA (dayflower, VA; 125 g ai/ha): 0
Plant response rating, Dayflower, VA (dayflower, VA; 250 g ai/ha): 0
Plant response rating, Nightshade (nightshade; 16 g ai/ha): 0
Plant response rating, Nightshade (nightshade; 31 g ai/ha): 0
Plant response rating, Nightshade (nightshade; 62 g ai/ha): 0
Plant response rating, Nightshade (nightshade; 250 g ai/ha): 0
